According to patent US20010044463A1, “Methods for controlling gram negative bacteria in mammals” (priority 1997, published 2001):

Columns and labels:
[1] = system: H. pylori ATCC 43504; assay: Minimum Inhibitory Concentration (MIC) blood agar plate growth inhibition; format: cell-based, Helicobacter pylori
Experimental: Subsequent dilutions were made in ethanol immediately prior to use. […] Subsequent dilutions were made in BHI medium (Brain heart infusion broth, Difco #0037-07-0) immediately prior to use.
(§1) Blood agar base (BAB) was prepared containing 1.5% agar and autoclaved. 20 ml samples of autoclaved BAB were poured into 50 mL tubes and placed in a 56° C. water bath.
The mixed media preparation was poured into a petri dished and allowed to solidify.
(§2) Prior to inoculation of petri plates, bacteria or cultures were examined for morphology under a phase microscope to confirm motility and physical characteristics, e.g., spiral shaped. The organisms were washed off the plate into PBS (Phosphate buffered saline) (80.0 g NaCl, 2.0 g KCl, 2.4 g KH2PO4 11.5 g Na2HPO4 or 24.4 g Na2HPO4/2H2O per 1 liter deionized water, pH 7.2, sterilized by autoclaving) and diluted into BHI at a concentration of 10^8/ml (O.D. of 0.3 units diluted 1:30). Ten microliters of solution containing 10^6 organisms were spread onto a petri plate and grown under microaerophilic conditions for 3 days unless specified. Control organisms were grown under microaerophilic conditions.
(§3) Inhibition of growth was determined by the amount of colonies present within the petri plate. The following factors were used for growth inhibition: ±=0-20 colonies, +=20-50 colonies, ++=50-200 colonies and +++=200+ colonies.

[2] = system: H. pylori (urease negative) (Wild strain of ATCC 43504); assay: as above; format: cell-based, Helicobacter pylori; conditions: Table III
Experimental: (§4) Monensin (Sigma Cat. No. M-5273) was dissolved in 100% absolute ethanol (AAPER Alcohol and Chemical Co.) at a concentration of 20 mg/ml. Subsequent dilutions were made in ethanol immediately prior to use. Nigericin (Sigma Cat. No. N-7143) was dissolved in DMSO at 2 mg/ml. Subsequent dilutions were made in BHI medium (Brain heart infusion broth, Difco #0037-07-0) immediately prior to use.
as §1
(§5) 100 μl of a drug (final concentration equivalent to 1:200 of original concentration) and 1.2 ml of sheep blood (Colorado Senun Company # CS-1112) (blood diluted in a 1:1 buffer providing a 3% concentration of blood per 20 ml medium sample) were added to 20 ml sample of media and mixed. The mixed media preparation was poured into a petri dished and allowed to solidify.
as §2, §3

[3] = system: Staph ATCC 14775; assay: Blood agar plate growth inhibition, control organism; format: cell-based
Experimental: as §4, §1, §5
as §2, with “Control organisms were grown under microaerophilic conditions.” left out
as §3

[4] = system: H. pylori (urease positive) ATCC Number 51652; assay: Minimum Inhibitory Concentration (MIC) blood agar plate growth inhibition; format: cell-based, Helicobacter pylori; conditions: Table XVII, Blood agar base + 3% sheep blood
Experimental: as §4, §1, §5, §2, §3

[5] = final drug concentration 0.1 ng/ml
[6] = final drug concentration 10 ng/ml
[7] = final drug concentration 100 ng/ml
[8] = final drug concentration 1 μg/ml
[9] = final drug concentration 10 μg/ml

CO[C@@H]1C[C@@H](C[C@H]2CC[C@H](C)[C@H]([C@@H](C)C(=O)O)O2)O[C@]2(O[C@](C)([C@H]3CC[C@@](C)([C@@H]4O[C@@H]([C@H]5O[C@@](O)(CO)[C@H](C)C[C@@H]5C)C[C@@H]4C)O3)C[C@H]2C)[C@@H]1C [Nigericin, nigericin]
(+++) (+++=200+ colonies): growth (amount of colonies present within the petri plate) ([1]; Table I, final drug concentration 0.1 ng/ml) | growth (amount of colonies present within the petri plate) ([1]; Table I, final drug concentration 1 ng/ml) | growth (amount of colonies present within the petri plate) ([1]; Table I, final drug concentration 10 ng/ml) | growth (amount of colonies present within the petri plate) ([1]; Table II, urease positive, final drug concentration 1 ng/ml) | growth (amount of colonies present within the petri plate) ([1]; Table II, urease positive, final drug concentration 10 ng/ml) | growth (amount of colonies present within the petri plate) ([1]; Table II, urease positive, final drug concentration 0.1 nglml) | growth (amount of colonies present within the petri plate) ([1]; Table IV, urease positive, final drug concentration 0.1 ng/ml) | growth (amount of colonies present within the petri plate) ([1]; Table IV, urease positive, final drug concentration 1 ng/ml) | growth (amount of colonies present within the petri plate) ([1]; Table IV, urease positive, final drug concentration 10 ng/ml) | growth (amount of colonies present within the petri plate) ([1]; Table IV, urease positive, final drug concentration 100 ng/ml) | growth (amount of colonies present within the petri plate) ([1]; Table VI, in the presence of 2.5 mM urea, final drug concentration 1 ng/ml) | growth (amount of colonies present within the petri plate) ([1]; Table VI, in the presence of 2.5 mM urea, final drug concentration 10 ng/ml) | growth (amount of colonies present within the petri plate) [2, 5] | growth (amount of colonies present within the petri plate) [2, 6] | growth (amount of colonies present within the petri plate) [2, 7] | growth (amount of colonies present within the petri plate) ([3]; Table XIV, Non-microaerophilic conditions, final drug concentration 0.1 ng/ml) | growth (amount of colonies present within the petri plate) ([3]; Table XIV, Non-microaerophilic conditions, final drug concentration 1 ng/ml) | growth (amount of colonies present within the petri plate) ([3]; Table XIV, Non-microaerophilic conditions, final drug concentration 10 ng/ml)
No growth^1: growth (amount of colonies present within the petri plate) ([1]; Table V, in the presence of 10 mM urea, final drug concentration 10 μg/ml, Nigericin assay done in duplicate)
(±) (±=0-20 colonies): growth (amount of colonies present within the petri plate) ([1]; Table VI, in the presence of 2.5 mM urea, final drug concentration 1 μg/ml)
No growth: growth (amount of colonies present within the petri plate) ([1]; Table I, final drug concentration 1 μg/ml) | growth (amount of colonies present within the petri plate) ([1]; Table I, final drug concentration 10 μg/ml) | growth (amount of colonies present within the petri plate) ([1]; Table II, urease positive, final drug concentration 1 μg/ml) | growth (amount of colonies present within the petri plate) ([1]; Table II, urease positive, final drug concentration 10 μg/ml) | growth (amount of colonies present within the petri plate) ([1]; Table IV, urease positive, final drug concentration 1 μg/ml) | growth (amount of colonies present within the petri plate) ([1]; Table IV, urease positive, final drug concentration 10 μg/ml) | growth (amount of colonies present within the petri plate) [2, 8] | growth (amount of colonies present within the petri plate) [2, 9] | growth (amount of colonies present within the petri plate) ([3]; Table XIV, Non-microaerophilic conditions, final drug concentration 1 μg/ml) | growth (amount of colonies present within the petri plate) ([3]; Table XIV, Non-microaerophilic conditions, final drug concentration 10 μg/ml)
(+++***) (+++=200+ colonies): growth (amount of colonies present within the petri plate) ([3]; Table XIV, Non-microaerophilic conditions, final drug concentration 100 ng/ml)
(±)^1 (±=0-20 colonies): growth (amount of colonies present within the petri plate) ([1]; Table V, in the presence of 10 mM urea, final drug concentration 1 μg/ml, Nigericin assay done in duplicate)
(++) (++=50-200 colonies): growth (amount of colonies present within the petri plate) ([1]; Table I, final drug concentration 100 ng/ml)
(++)^1 (++=50-200 colonies): growth (amount of colonies present within the petri plate) ([1]; Table V, in the presence of 10 mM urea, final drug concentration 10 ng/ml, Nigericin assay done in duplicate)
(+++)^1 (+++=200+ colonies): growth (amount of colonies present within the petri plate) ([1]; Table V, in the presence of 10 mM urea, final drug concentration 0.1 ng/ml, Nigericin assay done in duplicate) | growth (amount of colonies present within the petri plate) ([1]; Table V, in the presence of 10 mM urea, final drug concentration 1 ng/ml, Nigericin assay done in duplicate) | growth (amount of colonies present within the petri plate) ([1]; Table V, in the presence of 10 mM urea, final drug concentration 100 ng/ml, Nigericin assay done in duplicate)

CC[C@@H](C(=O)[C@@H](C)[C@@H](O)[C@H](C)[C@@H]1O[C@@H]([C@@H](CC)C(=O)O)CC[C@@H]1C)[C@H]1O[C@]2(C=C[C@@H](O)[C@]3(CC[C@@](C)([C@H]4CC[C@](O)(CC)[C@H](C)O4)O3)O2)[C@H](C)C[C@@H]1C [Salinomycin, salinomycin]
(+++)^1 (+++=200+ colonies): growth (amount of colonies present within the petri plate) ([3]; Table XV, Non microaerophilic conditions, final drug concentration 1 μg/ml)
(+++) (+++=200+ colonies): growth (amount of colonies present within the petri plate) ([1]; Table VII, urease positive, final drug concentration 0.098 μg/ml) | growth (amount of colonies present within the petri plate) ([1]; Table VII, urease positive, final drug concentration 0.195 μg/ml) | growth (amount of colonies present within the petri plate) ([1]; Table VII, urease positive, final drug concentration 0.39 μg/ml) | growth (amount of colonies present within the petri plate) ([1]; Table VII, urease positive, final drug concentration 0.78 μg/ml) | growth (amount of colonies present within the petri plate) ([1]; Table VII, urease positive, final drug concentration 1.56 μg/ml) | growth (amount of colonies present within the petri plate) [4, 5] | growth (amount of colonies present within the petri plate) ([4]; final drug concentration 1 ng/ml) | growth (amount of colonies present within the petri plate) [4, 6] | growth (amount of colonies present within the petri plate) [4, 7] | growth (amount of colonies present within the petri plate) [4, 8] | growth (amount of colonies present within the petri plate) ([3]; Table XV, Non microaerophilic conditions, final drug concentration 10 ng/ml) | growth (amount of colonies present within the petri plate) ([3]; Table XV, Non microaerophilic conditions, final drug concentration 100 ng/ml)
No growth: growth (amount of colonies present within the petri plate) [4, 9] | growth (amount of colonies present within the petri plate) ([3]; Table XV, Non microaerophilic conditions, final drug concentration 10 μg/ml)
6.25 µg/mL: MIC ([1]; Helicobacter pylori, ATCC43504)
